# Experimental data from ChEMBL document CHEMBL4346738, “Biological evaluation of molecules of the azaBINOL class as antiviral agents: Inhibition of HIV-1 RNase H activity by 7-isopropoxy-8-(naphth-1-yl)quinoline” (Bioorg Med Chem, 2019).
# Activity calls are given as the source filed them. The rule behind the calls is not given here.
# Tests used:
# TZM = assay: (§1) Cytotoxicity against human TZM-bl cells assessed as reduction in cell viability after 48 hrs by MTT assay; assay type: cell-based; details: tzm, 48 h
# [1] = tested on: Human immunodeficiency virus 1; assay: Selectivity ratio of IC50 for HIV1 V13-03413B infected in human LC5 cells to IC50 for HIV1 LAI infected in human LC5 cells; assay type: functional
# [2] = tested on: Human immunodeficiency virus 1; assay: Antiviral activity against HIV1 HXB2 pseudovirus infected in human TZM-bl cells assessed as inhibition of viral infection incubated for 20 mins prior to infection and measured after 48 hrs by bright Glo-luciferase reporter gene assay; assay type: functional, organism-based, M:B_HXB2R
# [3] = Compound aggregation in D2O/1% DMSO-d6 solvent assessed as change in chemical shift at 12 to 200 uM by 1H NMR dilution analysis; assay type: physicochemical
# [4] = Compound aggregation in D2O/1% DMSO-d6 solvent assessed as peak shape at 12 to 200 uM by 1H NMR dilution analysis; assay type: physicochemical
# [5] = Metal chelating activity assessed as compound-Mg2+ complex formation in presence of varying concentrations of Mg2+ at 100 uM by UV-vis spectrometry; assay type: ADME
# [6] = Compound aggregation in D2O/1% DMSO-d6 solvent assessed as number of resonance at 12 to 200 uM by 1H NMR dilution analysis; assay type: physicochemical
# [7] = tested on: Human immunodeficiency virus 1; assay: Antiviral activity against HIV1 LAI infected in human LC5 cells expressing DsRed1 reporter gene assessed as inhibition of viral infection measured after 48 hrs post infection by reporter gene based […] assay; assay type: functional, organism-based
# [8] = Cytotoxicity against human LC5 cells assessed as reduction in cell viability incubated for 48 hrs by resazurin dye-based assay; details: for CC50 at 48 h: LC5 cells
# [9] = Selectivity index, ratio of CC50 for human LC5 cells to IC50 for antiviral activity against HIV1 LAI infected in human LC5 cells; assay type: toxicity, cell-based; details: read-out: Ratio CC50/IC50
# [10] = biological target: Human immunodeficiency virus type 1 integrase (Human immunodeficiency virus 1, UniProt Q7ZJM1); assay: Inhibition of recombinant HIV1 integrase strand transfer activity using biotin-labeled double-stranded HIV1 LTR U5 donor DNA substrate pretreated for 5 mins followed by substrate addition and measured after 30 mins by ELISA
# Sequence of Human immunodeficiency virus type 1 integrase (Q7ZJM1 whole entry): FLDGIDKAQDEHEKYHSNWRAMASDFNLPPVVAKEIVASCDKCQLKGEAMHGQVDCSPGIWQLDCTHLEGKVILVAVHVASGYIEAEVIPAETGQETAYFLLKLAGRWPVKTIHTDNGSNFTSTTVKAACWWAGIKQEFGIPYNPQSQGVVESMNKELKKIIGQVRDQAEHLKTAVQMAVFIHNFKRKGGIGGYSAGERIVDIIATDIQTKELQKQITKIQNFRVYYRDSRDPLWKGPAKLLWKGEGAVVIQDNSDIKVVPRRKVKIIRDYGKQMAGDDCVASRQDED
# [11] = tested on: Human immunodeficiency virus 1; assay: Antiviral activity against HIV1 89.6 pseudovirus infected in human TZM-bl cells assessed as inhibition of viral infection incubated for 20 mins prior to infection and measured after 48 hrs post infection by bright Glo-luciferase reporter gene assay; assay type: functional, organism-based, M:B_89.6
# [12] = biological target: T1, Human immunodeficiency virus type 1 reverse transcriptase (Human immunodeficiency virus 1, UniProt Q72547); assay: Inhibition of HIV1 reverse transcriptase RNase H using 18-nucleotide 3'-fluorescein-labeled RNA/5'-dabcyl-labeled DNA hybrid as substrate measured after 1 hr by FRET based assay
# [13] = tested on: Human immunodeficiency virus 1; assay: Antiviral activity against HIV1 YU2 pseudovirus infected in human TZM-bl cells assessed as inhibition of viral infection incubated for 20 mins prior to infection and measured after 48 hrs post infection by bright Glo-luciferase reporter gene assay; assay type: functional, organism-based, isolate YU2
# [14] = tested on: Human immunodeficiency virus 1; assay: Antiviral activity against HIV1 V13-03413B infected in human LC5 cells expressing DsRed1 reporter gene assessed as inhibition of viral infection measured after 48 hrs post infection by reporter gene based […] assay; assay type: functional, organism-based; details: Human immunodeficiency virus 1, V13-03413B
# Reverse transcriptase = Reverse transcriptase (Moloney murine leukemia virus, UniProt Q83371); assay: Inhibition of Murine leukemia virus reverse transcriptase RNase H using 18-nucleotide 3'-fluorescein-labeled RNA/5'-dabcyl-labeled DNA hybrid as substrate measured after 1 hr by FRET based assay
# [15] = Inhibition of Avian myeloblastosis virus reverse transcriptase RNase H using 18-nucleotide 3'-fluorescein-labeled RNA/5'-dabcyl-labeled DNA hybrid as substrate measured after 1 hr by FRET based assay
# [16] = as §1; assay type: cell-based; details: TZM-bl cells
# [17] = Inhibition of Escherichia coli reverse transcriptase RNase H using 18-nucleotide 3'-fluorescein-labeled RNA/5'-dabcyl-labeled DNA hybrid as substrate measured after 1 hr by FRET based assay
# [18] = biological target: T1, Human immunodeficiency virus type 1 reverse transcriptase; assay: Binding affinity to recombinant wild-type full length HIV1 reverse transcriptase p66/p51 expressed in Escherichia coli by biolayer interferometry
# [19] = biological target: T1, Human immunodeficiency virus type 1 reverse transcriptase; assay: Inhibition of HIV1 Reverse transcriptase polymerase assessed as decrease in digoxigenin and biotin-dUTP incorporation into DNA using poly(A)/oligo(dT)15 as template/primer by ELISA
# [20] = Selectivity index, ratio of CC50 for human TZM-bl cells to IC50 for antiviral activity against HIV1 89.6 pseudovirus infected in human TZM-bl cells; assay type: toxicity, cell-based; details: read-out: Ratio CC50/IC50
# [21] = tested on: Human immunodeficiency virus 1; assay: Antiviral activity against HIV1 HXB2 pseudovirus infected in human TZM-bl cells assessed as inhibition of viral infection up to 200 uM incubated for 20 mins prior to infection and measured after 48 hrs post infection by bright Glo-luciferase reporter gene assay; assay type: functional, organism-based; details: M:B_HXB2R
# [22] = tested on: Human immunodeficiency virus 1; assay: Antiviral activity against HIV1 89.6 pseudovirus infected in human TZM-bl cells assessed as inhibition of viral infection up to 200 uM incubated for 20 mins prior to infection and measured after 48 hrs post infection by bright Glo-luciferase reporter gene assay; assay type: functional, organism-based; details: M:B_89.6
# [23] = tested on: Human immunodeficiency virus 1; assay: Antiviral activity against HIV1 YU2 pseudovirus infected in human TZM-bl cells assessed as inhibition of viral infection up to 200 uM incubated for 20 mins prior to infection and measured after 48 hrs post infection by bright Glo-luciferase reporter gene assay; assay type: functional, organism-based; details: isolate YU2
# [24] = tested on: Human immunodeficiency virus 1; assay: Antiviral activity against HIV1 LAI infected in human LC5 cells expressing DsRed1 reporter gene assessed as inhibition of viral infection up to 200 uM measured after 48 hrs post infection by reporter gene based […] assay; assay type: functional, organism-based
# [25] = Half life of the compound in methyl alcohol assessed as compound racemization at 24 degC; assay type: physicochemical
# [26] = Selectivity index, ratio of CC50 for human TZM-bl cells to IC50 for antiviral activity against HIV1 HXB2 pseudovirus infected in human TZM-bl cells; assay type: toxicity, cell-based; details: read-out: Ratio CC50/IC50
# [27] = tested on: Human immunodeficiency virus 1; assay: Antiviral activity against HIV1 HXB2 pseudovirus infected in human TZM-bl cells assessed as inhibition of viral infection at 20 nM measured after 48 hrs post infection by bright Glo-luciferase reporter gene assay relative to control; assay type: functional; details: Human immunodeficiency virus 1, M:B_HXB2R
# [28] = tested on: Human immunodeficiency virus 1; assay: Antiviral activity against HIV1 89.6 pseudovirus infected in human TZM-bl cells assessed as inhibition of viral infection at 20 nM measured after 48 hrs post infection by bright Glo-luciferase reporter gene assay relative to control; assay type: functional; details: Human immunodeficiency virus 1, M:B_89.6, TZM-bl
# [29] = tested on: Human immunodeficiency virus 1; assay: Antiviral activity against HIV1 YU2 pseudovirus infected in human TZM-bl cells assessed as inhibition of viral infection at 20 nM measured after 48 hrs post infection by bright Glo-luciferase reporter gene assay relative to control; assay type: functional; details: Human immunodeficiency virus 1, isolate YU2, TZM-bl
# [30] = Human immunodeficiency virus 1, M:B_HXB2R, TZM-bl, read-out: IC50
# [31] = Human immunodeficiency virus 1, LAI, 48 h, read-out: IC50
# [32] = Human immunodeficiency virus 1, M:B_89.6, TZM-bl, read-out: IC50
# [33] = Human immunodeficiency virus 1, isolate YU2, TZM-bl, read-out: IC50
structure (smiles),measurement,setting,value
O=C1Nc2ccc(Cl)cc2[C@@](C#CC2CC2)(C(F)(F)F)O1 [EFAVIRENZ],CC50,TZM,Non-Toxic
CC(C)Oc1ccc2cccnc2c1-c1cccc2ccccc12,Ratio IC50,[1],5
same,IC50,[2]; [30],6.7 µM
same,Activity,[3],Not Active
same,Activity,[4],Not Active
same,Activity,[5],Not Active
same,Activity,[6],Not Active
same,IC50,[7]; [31],6.7 µM
same,CC50 at 48 h,[8],86.5 µM
same,selectivity ratio,[9],11.4
same,IC50,[10],> 100 µM
same,IC50,[11]; [32],4.7 µM
same,IC50,[12],46.8 µM
same,IC50,[13]; [33],8.9 µM
same,IC50,[14],34.2 µM
same,IC50,Reverse transcriptase,> 100 µM
same,IC50,[15],> 100 µM
same,CC50 at 48 h,[16],68.5 µM
same,IC50,[17],44.3 µM
same,Kd,[18],38 µM
same,IC50,[19],> 100 µM
same,selectivity ratio,[20],14.6
Cc1cc(/C=C/C#N)cc(C)c1Nc1ccnc(Nc2ccc(C#N)cc2)n1 [RILPIVIRINE],IC50,[12],> 10 µM
same,IC50,Reverse transcriptase,> 10 µM
same,IC50,[17],> 10 µM
CCN(CC)C(=O)Oc1ccc2cccnc2c1-c1cccc2cccnc12,IC50,[2],Not Active
same,Activity,[21],inactive
same,IC50,[7],Not Active
same,CC50 at 48 h,[8],383 µM
same,Activity,[22],inactive
same,Activity,[23],inactive
same,Activity,[24],inactive
same,IC50,[11],Not Active
same,IC50,[13],Not Active
same,CC50,TZM,Non-Toxic
CCN(CC)C(=O)Oc1ccc2cccnc2c1-c1cccc2ccccc12,IC50,[2]; [30],61.4 µM
same,IC50,[7]; [31],24.1 µM
same,CC50 at 48 h,[8],51.9 µM
same,selectivity ratio,[9],2.2
same,IC50,[11]; [32],56.6 µM
same,IC50,[13]; [33],77.6 µM
same,CC50 at 48 h,[16],95 µM
same,selectivity ratio,[20],1.7
Oc1ccc2cccnc2c1-c1cccc2ccccc12,half-life,[25],120 h
NC(=O)c1c(N)sc2c1CCCCC2,IC50,[12],28.1 µM
Oc1ccc2ccccc2c1-c1cccc2cccnc12,half-life,[25],89 h
CC(C)Oc1ccc2cccnc2c1-c1cccc2cccnc12,IC50,[2],Not Active
same,Activity,[21],inactive
same,IC50,[7],Not Active
same,CC50,[8]; 48 h,Non-Toxic
same,Activity,[22],inactive
same,IC50,[10],> 100 µM
same,Activity,[23],inactive
same,Activity,[24],inactive
same,IC50,[11],Not Active
same,IC50,[12],> 100 µM
same,IC50,[13],Not Active
same,IC50,Reverse transcriptase,> 100 µM
same,CC50,TZM,Non-Toxic
same,IC50,[17],> 100 µM
same,IC50,[19],> 100 µM
CC(C)Oc1ccc2ccccc2c1-c1cccc2cccnc12,IC50,[2]; [30],> 100 µM
same,IC50,[7]; [31],39.5 µM
same,CC50 at 48 h,[8],145 µM
same,selectivity ratio,[9],3.6
same,IC50,[11]; [32],> 100 µM
same,IC50,[13]; [33],> 100 µM
same,CC50 at 48 h,[16],> 100 µM
CCN(CC)C(=O)Oc1ccc2ccccc2c1-c1cccc2cccnc12,IC50,[2]; [30],12.6 µM
same,IC50,[7]; [31],50.1 µM
same,CC50 at 48 h,[8],71.4 µM
same,selectivity ratio,[9],1.4
same,selectivity ratio,[26],5.5
same,IC50,[11]; [32],16.8 µM
same,IC50,[13]; [33],14 µM
same,CC50 at 48 h,[16],69.3 µM
COc1cnc(-n2cnc(C)n2)c2[nH]cc(C(=O)C(=O)N3CCN(C(=O)c4ccccc4)CC3)c12,inhibition at 0.02 µM,[27],100%
same,inhibition at 0.02 µM,[28],100%
same,inhibition at 0.02 µM,[29],100%
